Source: ChEMBL document CHEMBL2074121, “Human dipeptide transporter, hPEPT1, stably transfected into Chinese hamster ovary cells” (Pharm Res, 1996)
Where a SMILES comes first, the peptide text is derived from it.

molecular target: T1, Solute carrier family 15 member 1 (Homo sapiens, UniProt P46059); assay: TP_TRANSPORTER: inhibition of Gly-Sar uptake (Gly-Sar: 25000 uM) in PEPT1-expressing CHO cells; format: functional, cell-based
T1 sequence (P46059 whole entry): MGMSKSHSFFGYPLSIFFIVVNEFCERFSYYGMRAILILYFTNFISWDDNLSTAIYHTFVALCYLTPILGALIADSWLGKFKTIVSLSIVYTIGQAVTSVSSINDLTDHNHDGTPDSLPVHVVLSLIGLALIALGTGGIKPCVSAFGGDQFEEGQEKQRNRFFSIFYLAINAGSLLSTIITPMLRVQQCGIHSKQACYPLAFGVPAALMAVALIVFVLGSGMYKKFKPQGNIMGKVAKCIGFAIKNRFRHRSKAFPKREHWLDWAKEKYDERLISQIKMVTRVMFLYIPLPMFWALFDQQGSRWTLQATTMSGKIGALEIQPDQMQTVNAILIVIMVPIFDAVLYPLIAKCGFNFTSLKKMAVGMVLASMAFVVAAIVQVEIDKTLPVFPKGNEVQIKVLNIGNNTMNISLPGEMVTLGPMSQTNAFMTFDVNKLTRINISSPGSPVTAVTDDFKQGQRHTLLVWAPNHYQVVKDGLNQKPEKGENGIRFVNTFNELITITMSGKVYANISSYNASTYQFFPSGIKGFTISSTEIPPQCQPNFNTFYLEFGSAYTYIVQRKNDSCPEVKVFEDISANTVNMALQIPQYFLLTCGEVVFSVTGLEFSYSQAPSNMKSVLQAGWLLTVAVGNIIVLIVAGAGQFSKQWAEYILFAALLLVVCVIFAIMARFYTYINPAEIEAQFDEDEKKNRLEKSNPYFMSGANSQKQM

IC50 [µM]	SMILES
63	C[C@H](N)C(=O)N[C@@H](C)C(=O)O (H-Ala-Ala-OH)
10000	CC1(C)S[C@@H]2[C@H](NC(=O)[C@H](N)c3ccccc3)C(=O)N2[C@H]1C(=O)O [AMPICILLIN]

SMILES	IC50 [µM]
NCC(=O)NCC(=O)NCC(=O)O	1400
